Drawing on US8012957B2, “Tetrahydro-1H-1,2,6-triaza-azulene cannabinoid modulators” (Janssen Pharmaceutica NV, priority 2006, dated 2011), this text covers inhibition and IC50 for six compounds.

For one experiment, the target named is T1, cannabinoid CB1 receptor (Homo sapiens, UniProt P21554).
T1 construct: expressed in transfected cells; host or cells: SK-N-MC cells, pcDNA3 CB-1 (human), semi-purified membrane pellet
The experiment can be described thus: Binding assay for CB1, [3H]-CP-55,940 displacement on membranes of transfected SK-N-MC cells. As to conditions: for inhibition at 0.2 µM: test concentration of 0.2 μM, read-out: Cannabinoid CB 1 Receptor Binding Inhibition (%); for IC50: radioligand [3H]-CP-55,940 0.2 nM, calculated by linear regression. Here is the method:
(§1) Binding Assay for CB1 or CB2 Agonists or Inverse Agonists
(§2) The human CB1 and CB2 receptors were stably expressed in SK-N-MC cells transfected with pcDNA3 CB-1 (human) or pcDNA3 CB-2 (human). The cells were grown in T-180 cell culture flasks under standard cell culture conditions at 37° C. in a 5% CO2 atmosphere. The cells were harvested by trysinization and homogenized in a homogenization buffer (10 mM Tris, 0.2 mM MgCl2, 5 mM KCl, with protease inhibitors aprotinin, leupeptin, pepstatin A and bacitracin) and centrifuged (2000 g). The supernatant was then centrifuged in 2M sucrose (31,300 g) to produce a semi-purified membrane pellet. The pellet was resuspended in homogenization and stored at −80° C.
(§3) On the day of the assay, the pellet was thawed on ice and diluted in assay buffer (50 mM Tris-HCl, 5 mM MgCl2, 2.5 mM EDTA, 0.5 mg/mL fatty acid free bovine serum albumin, pH 7.5). The diluted membrane pellet was added with buffer, either a test compound or vehicle standard and a the radioligand [H]^3+-CP-55,940 (0.2 nM) to the wells of a 96-well polypropylene plate. Non-specific binding was measured in wells containing WIN 55,212 (10 uM). The plate was covered and incubated for 90 minutes at 30° C. The contents were then aspirated onto a Packard Unifilter GF/C filter bottom plate prewet with 0.5% polyethyleneimine. The wells of the polypropylene plate were rinsed and aspirated seven times with a 0.9% saline-0.5% Tween 20 solution. The Unifilter plate was dried, a scintillation cocktail was added to each well and the counts representing binding were quantitated in a TopCount scintillation counter.
(§4) For compounds tested, an IC50 binding value was obtained from percent inhibition studies in which various test concentrations were used. The binding value (in μM) was calculated by linear regression.
(§5) For those compounds without an IC50 binding value, the percent inhibition (%) was obtained at a test concentration of 0.2 μM.

The target of a further experiment is T2, cannabinoid CB2 receptor (Homo sapiens, UniProt P34972).
T2 construct: expressed in transfected cells; host or cells: SK-N-MC cells, pcDNA3 CB-2 (human), semi-purified membrane pellet
T2 sequence (P34972 whole entry): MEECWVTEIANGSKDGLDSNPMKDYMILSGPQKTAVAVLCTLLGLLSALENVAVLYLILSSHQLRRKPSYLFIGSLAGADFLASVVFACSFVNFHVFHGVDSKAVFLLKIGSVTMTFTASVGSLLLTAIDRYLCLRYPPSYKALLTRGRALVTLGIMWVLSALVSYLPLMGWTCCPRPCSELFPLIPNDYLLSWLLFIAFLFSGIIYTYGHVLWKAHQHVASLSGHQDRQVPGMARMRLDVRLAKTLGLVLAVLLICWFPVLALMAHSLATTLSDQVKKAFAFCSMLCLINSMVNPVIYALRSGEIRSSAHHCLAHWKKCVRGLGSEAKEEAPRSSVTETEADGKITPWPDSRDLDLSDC
The experiment can be described thus: Binding assay for CB2, [3H]-CP-55,940 displacement on membranes of transfected SK-N-MC cells. As to conditions: test concentration of 0.2 μM. As to the method: as §1, §2, §3, §4, §5

T1 sequence (P21554 whole entry): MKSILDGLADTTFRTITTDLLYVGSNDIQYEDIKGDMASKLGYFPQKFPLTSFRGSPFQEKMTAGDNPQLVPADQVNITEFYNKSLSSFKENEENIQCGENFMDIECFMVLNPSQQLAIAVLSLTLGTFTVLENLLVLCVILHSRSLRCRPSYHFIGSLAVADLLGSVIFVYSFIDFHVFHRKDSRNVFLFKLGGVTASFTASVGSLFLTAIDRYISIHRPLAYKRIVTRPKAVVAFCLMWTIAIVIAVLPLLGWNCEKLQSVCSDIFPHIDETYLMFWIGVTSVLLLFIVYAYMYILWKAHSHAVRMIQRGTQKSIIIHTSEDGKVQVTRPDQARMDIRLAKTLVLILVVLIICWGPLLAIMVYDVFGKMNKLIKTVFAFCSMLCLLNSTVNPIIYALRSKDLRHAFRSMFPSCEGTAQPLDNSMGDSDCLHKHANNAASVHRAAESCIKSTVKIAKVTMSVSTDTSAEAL

As usually defined, the inhibition is the change of the read-out against control, counted positive when it falls. For `CC(C)(C)OC(=O)N1CCc2c(C(=O)N3CCCCC3)nn(-c3ccc(Cl)cc3Cl)c2/C(=C/c2ccc(F)cc2)C1` [Cpd 1, (8E)-1-(2,4-dichloro-phenyl)-8-(4-fluoro-benzylidene)-3-(piperidine-1-carbonyl)-4,5,7,8-tetrahydro-1 H-1,2,6-triaza-azulene-6-carboxylic acid tert-butyl ester], the inhibition at 0.2 µM is 27% at cannabinoid CB1 receptor and 6% on cannabinoid CB2 receptor.
Consider `CC(C)(C)OC(=O)N1CCc2c(C(=O)NN3CCCCC3)nn(-c3ccc(Cl)cc3Cl)c2/C(=C/c2ccc(F)cc2)C1` [Cpd 2, (8E)-1-(2,4-dichloro-phenyl)-8-(4-fluoro-benzylidene)-3-(piperidin-1-ylcarbamoyl)-4,5,7,8-tetrahydro-1H-1,2,6-triaza-azulene-6-carboxylic acid tert-butyl ester], for which the inhibition at 0.2 µM on cannabinoid CB1 receptor came to 54%; at cannabinoid CB2 receptor, 15%.
The term IC50 denotes the concentration at which inhibition is half-maximal. With `CC(NC(=O)c1nn(-c2ccc(Cl)cc2Cl)c2c1CCN(C(=O)OC(C)(C)C)C/C2=C\c1ccc(F)cc1)c1ccccc1` (stereo not drawn) [Cpd 3, (8E)-1-(2,4-dichloro-phenyl)-8-(4-fluoro-benzylidene)-3-(1-phenyl-ethylcarbamoyl)-4,5,7,8-tetrahydro-1 H-1,2,6-triaza-azulene-6-carboxylic acid tert-butyl ester], the half-maximal inhibitory concentration (IC50) at cannabinoid CB1 receptor is 61 nM. This compound also displayed an inhibition at 0.2 µM on cannabinoid CB2 receptor of 15%.
For the compound `CC(NC(=O)c1nn(-c2ccc(Cl)cc2Cl)c2c1CCN(C(=O)OC(C)(C)C)C/C2=C\c1ccc(F)cc1)c1ccccn1` (stereo not drawn) [Cpd 4, (8E)-1-(2,4-dichloro-phenyl)-8-(4-fluoro-benzylidene)-3-(1-pyridin-2-yl-ethylcarbamoyl)-4,5,7,8-tetrahydro-1 H-1,2,6-triaza-azulene-6-carboxylic acid tert-butyl ester], the IC50 at cannabinoid CB1 receptor is 50 nM. This compound also registered an inhibition at 0.2 µM on cannabinoid CB2 receptor of 14%.
On to `O=C(c1nn(-c2ccc(Cl)cc2Cl)c2c1CCNC/C2=C\c1ccc(F)cc1)N1CCCCC1` [Cpd 5, (8E)-[1-(2,4-dichloro-phenyl)-8-(4-fluoro-benzylidene)-1,4,5,6,7,8-hexahydro-1,2,6-triaza-azulen-3-yl]-piperidin-1-yl-methanone], for which the inhibition at 0.2 µM on cannabinoid CB1 receptor worked out at 16%; at cannabinoid CB2 receptor it was 10%.
Regarding `COC(=O)N1CCc2c(C(=O)NN3CCCCC3)nn(-c3ccc(Cl)cc3Cl)c2/C(=C/c2ccc(F)cc2)C1` [Cpd 6, (8E)-1-(2,4-dichloro-phenyl)-8-(4-fluoro-benzylidene)-3-(piperidin-1-ylcarbamoyl)-4,5,7,8-tetrahydro-1H-1,2,6-triaza-azulene-6-carboxylic acid methyl ester], the values for the inhibition at 0.2 µM on cannabinoid CB1 receptor and at cannabinoid CB2 receptor were 39% and 17%, respectively.
